Consider one molecule from patent US12115202B1, “Method of preventing cadmium-induced liver toxicity using a plant product derived from Achillea millefolium L” (KING FAISAL UNIVERSITY, priority 2024, dated 2024).

Data set [1] in a line: Changes in body weight of rats in CdCl2-induced hepatic toxicity study. The class given is in vivo, rat. Conditions: male Wistar rats, n=8 per group; AEO 250 mg/kg 2 hours before saline or CdCl2 6.5 mg/kg i.p., daily for 7 days; mean ± SD. The protocol:
(§1) To study the hepatic protective activity of Achillea millefolium essential oil (AEO) on CdCl2-induced hepatic toxicity, male Wistar rats (weighing, 180 g-200 g) were purchased from the Experimental Animal Research Centre, King Saud University, Riyadh, KSA. The animals were randomly divided into four groups (n=8 per group). For Group I (the Control group), the animals were pre-administered with 0.9% NaCl (physiological saline), 2 hours before the injection of 0.9% NaCl (physiological saline) i.p., daily for 7 days. For Group II (the CdCl2 group), the animals were pre-administered with 0.9% NaCl (physiological saline) 2 hours before injection of 6.5 mg/kg CdCl2 i.p. daily for 7 days. For Group III (the AEO group), the animals were pre-administered with 250 mg/kg AEO 2 hours before the injection of 0.9% NaCl (physiological saline) i.p. daily for 7 days. For Group IV (the AEO+CdCl2 group), the animals were pre-administered with 250 mg/kg AEO 2 hours before the injection of 6.5 mg/kg CdCl2 i.p. daily for 7 days. Twenty-four hours after the last treatment, the animals were killed and the liver was quickly removed and weighed.

Data set [2] in a line: Determination of Cd concentration in liver tissue. The class given is in vivo, rat. As for the experimental part: as §1
Cd concentration was measured using conventional methods. Liver tissue was weighed and dried in an oven for 4 hours at 250° C. […] Cd concentrations were determined by spectrophotometry at […]. The Cd concentrations are expressed as μg/g of wet liver tissue.

Data set [3] concerns CdCl2-induced hepatic toxicity. The data set is described as follows: Liver function test (serum enzymes, ELISA kits). The class given is in vivo, rat. Conditions: rats, Cd vs control group, AEO 250 mg/kg + CdCl2 vs CdCl2 group. The protocol:
as §1
The activities of alanine transaminase (ALT), aspartate aminotransferase (AST), alkaline phosphatase (ALP), lactate dehydrogenase (LDH) enzymes and γ-glutamyltransferase1 (γGTT1) were determined using ELISA kits.

The test system of data set [4] is CdCl2-induced hepatic toxicity. As to the kind of experiment: Determination of hepatic oxidative stress markers. The class given is in vivo, rat. Conditions: rats, CdCl2 vs control, AEO 250 mg/kg + CdCl2 vs CdCl2 group. The protocol: as §1
(§2) Parts of the frozen liver samples (50 mg) were homogenized in 1 ml ice-cold phosphate buffer saline containing a protease/phosphatase inhibitor cocktail. The homogenates were centrifuged at 10,000×g for 15 minutes at 4° C. and the supernatants were isolated to new tubes. The tubes were kept at −20° C. until further biochemical analysis.
Lipid peroxidation was assessed according to the amount of malondialdehyde (MDA). The activities of catalase, superoxide dismutase (SOD) glutathione peroxidase (GSH-Px) and glutathione reductase (GSH-R) were estimated using kits, according to manufacturer protocol.

The next data set has as its system Nrf2/HO-1/NQO1. The data set is described as follows: Hepatic Nrf2 pathway gene expression (qPCR). It counts as in vivo. Conditions: rat liver, qPCR relative to β-actin, Cd vs control, AEO + CdCl2 vs CdCl2 group. The protocol: as §1, with “Twenty-four hours after the last treatment, the animals were killed and the liver was quickly removed and weighed.” left out
Gene expression for the Nrf2 pathway, including nuclear factor erythroid 2-related factor 2 (Nrf2), hemeoxygenase-1 (HO-1), NAD(P)H: quinone oxidoreductase 1 (NQO1) and Nuclear factor kappa B (NFκB) were quantified via real-time PCR (qPCR) consuming the primers' sequences, shown in Table 1, in agreement with the method described elsewhere. Briefly, RNA was isolated and purified using a Trizol reagent kit (Invitrogen, Carlsbad, CA, USA), then a reverse transcription polymerase chain reaction (RT-PCR) kit (TaKaRa, Kusatsu, Shiga, Japan) following the manufacturer's procedures. qPCR was applied using a SYBR ExScript RT-PCR kit, and quantification examinations were accomplished via an Opticon-2 Real-4 time PCR reactor (MJ Research, Capital Court, Reno, NV, USA). qPCR results were obtained using Step PE Applied Biosystems (Waltham, MA, USA) software. Relative gene expression data were calculated as mentioned earlier by the Livak and Schmittgen method (2-ΔΔCq2) and presented as a fold change. Target gene expressions were assessed and related to the reference gene (β-actin).

In another data set the test system is NFκB. As to the kind of experiment: Hepatic NFκB gene expression (qPCR). The class given is in vivo. Conditions: rat liver, qPCR relative to β-actin; Cd vs control; AEO with Cd vs Cd alone group; FIG. 3D. The protocol:
To study the hepatic protective activity of Achillea millefolium essential oil (AEO) on CdCl2-induced hepatic toxicity, male Wistar rats (weighing, 180 g-200 g) were purchased from the Experimental Animal Research Centre, King Saud University, Riyadh, KSA. The animals were randomly divided into four groups (n=8 per group). For Group I (the Control group), the animals were pre-administered with 0.9% NaCl (physiological saline), 2 hours before the injection of 0.9% NaCl (physiological saline) i.p., daily for 7 days. For Group II (the CdCl2 group), the animals were pre-administered with 0.9% NaCl (physiological saline) 2 hours before injection of 6.5 mg/kg CdCl2 i.p. daily for 7 days. […]
Gene expression for the Nrf2 pathway, including nuclear factor erythroid 2-related factor 2 (Nrf2), hemeoxygenase-1 (HO-1), NAD(P)H: quinone oxidoreductase 1 (NQO1) and Nuclear factor kappa B (NFκB) were quantified via real-time PCR (qPCR) consuming the primers' sequences, shown in Table 1, in agreement with the method described elsewhere. […] Relative gene expression data were calculated as mentioned earlier by the Livak and Schmittgen method (2-ΔΔCq2) and presented as a fold change. Target gene expressions were assessed and related to the reference gene (β-actin).

In data set [5] the test system is CdCl2-induced hepatic toxicity. The data set is described as follows: Determination of liver inflammatory markers. The class given is in vivo, rat. Conditions: rats, CdCl2 vs control, AEO 250 mg/kg + CdCl2 vs CdCl2 group. As for the experimental part:
as §1, §2
Inflammation markers including tumor necrosis factor alpha (TNF-α), interleukin 1β (IL-1β), intracellular adhesion molecule-1 (ICAM-1) and myeloperoxidase (MPO) were measured according to the manufacturer protocol of the Kit.

`[Cl][Cd][Cl]` [CdCl2] came in with a Final weight in data set [1] of 190.84 ± 4.41. Moreover, the “Cd concentration (μg/g liver tissue)” value in data set [2] (male Wistar rats, AEO 250 mg/kg 2 hours before saline or CdCl2 6.5 mg/kg i.p., daily for 7 days, liver 24 h after last treatment, mean ± SD) came to 0.74 ± 0.023 μg/g liver tissue. In data set [2] (rats, CdCl2 vs control group, AEO prior to CdCl2 vs CdCl2 group, p<0.05), the “Concentration of Cd in hepatic tissue (change)” value is on record as “significantly increased”. Further, the “serum ALT level” value in data set [3] (FIG. 1A) is “increase”. Moreover, the “serum AST level” value in data set [3] (FIG. 1B) was “increase”. Further, in data set [3] (FIG. 1C), the “serum ALP level” value is on record as “increase”. Further, the “serum LDH level” value in data set [3] (FIG. 1D) is recorded as “increase”. The “serum γGTT1 level” value in data set [3] (FIG. 1E) is “increase”. Also, in data set [4] (FIG. 2A), the “hepatic MDA level (lipid peroxidation)” value is recorded as “augmented”. Besides, the “hepatic GSH-Px activity” value in data set [4] (FIG. 2B) was “considerably declined”. Further, in data set [4] (FIG. 2C), the “hepatic GSH-R activity” value is “considerably declined”. In addition, the “hepatic SOD activity” value in data set [4] (FIG. 2D) was “considerably declined”. The “hepatic CAT (catalase) activity” value in data set [4] (FIG. 2E) is on record as “considerably declined”. Further, the “Nrf2 mRNA expression level” value in the data set with Nrf2/HO-1/NQO1 (FIG. 3A) is recorded as “decreased”. Moreover, the “HO-1 mRNA expression level” value in the data set with Nrf2/HO-1/NQO1 (FIG. 3B) was “decreased”. The “NQO1 mRNA expression level” value with Nrf2/HO-1/NQO1 (FIG. 3C) is “decreased”. Besides, the “NFκB mRNA expression level” value in the data set on NFκB was “significantly augmented”. Further, the TNF-α hepatic level entry in data set [5] (FIG. 4A) is reported as “augmented”. In data set [5] (FIG. 4B), the IL-1β hepatic level entry was “augmented”. In addition, the MPO hepatic level entry in data set [5] (FIG. 4C) was “augmented”. Also, in data set [5] (FIG. 4D), the ICAM-1 hepatic level entry was “augmented”.
